# Data reported in US6608069B1, “Phenyl xanthine derivatives” (SmithKline Beecham Corporation, priority 1998, dated 2003).
# Where a name gives a salt, the structure may show the parent alone.
# Test system: cytokine-stimulated human umbilical vein endothelial cells
# Experiment: Cell Adhesion Assay: adherence of fluorescently-labelled leukocytes to endothelial cell monolayers
# Format: cell-based
# Details: Homo sapiens; inhibition of cytokine-stimulated adhesion minus basal adhesion; calcein-AM labelled leukocytes on HUVEC monolayers
# Protocol: The antiadhesion activity of compounds of the invention was determined using a modification of the previously described method, Jurgensen, C. H. et. al., J. Immunol. 144: 653-661. The adhesiveness of cytokine-stimulated human umbilical vein endothelial cells was assessed by quantitating the adherence of fluorescently-labelled (calcein-AM, Molecular Probes, Eugene, Oreg.) leukocytes to endothelial cell monolayers. Activity was determined by calculating inhibition of cytokine-stimulated adhesion minus the basal adhesion (unstimulated).
row,IC50,Compound
1,49 ± 16 nM,"COCCOCCOCCOCCOCCOCCOCCOCCOCCOCc1ccc(-c2nc3c([nH]2)c(=O)n(CC2CCCCC2)c(=O)n3CC2CCCCC2)cc1 [Example 96, 1,3-Bis(cyclohexylmethyl)-8-[4-(2,5,8,11,14,17,20,23,26,29-decaoxatriacont-1-yl)phenyl]-3,7-dihydro-1H-purine-2,6-dione]"
2,29 ± 11 nM,"COCCOCCOCCOCCOCCOCCOCCOCCOCCOCc1cccc(-c2nc3c([nH]2)c(=O)n(CC2CCCCC2)c(=O)n3CC2CCCCC2)c1 [Example 110, 1,3-Bis(cyclohexylmethyl)-8-[3-(2,5,8,11,14,17,20,23,26,29-decaoxatriacont-1-yl)phenyl]-3,7-dihydro-1H-purine-2,6-dione]"

# Same assay, conditions: inhibition of cytokine-stimulated adhesion minus basal adhesion; calcein-AM labelled leukocytes on HUVEC monolayers
row,IC50,Compound
1,> 1000 nM,COCCOCCOCCOC(=O)/C=C/c1ccc(-c2nc3c(c(=O)n(CC4CCCCC4)c(=O)n3CC3CCCCC3)n2CCOCCOCCOC)cc1 [Example 97]
2,37 ± 23 nM,"COCCOCCOCCOCCOCCOCCOCCOCCOCCOC(=O)/C=C/c1ccc(-c2nc3c([nH]2)c(=O)n(CC2CCCCC2)c(=O)n3CC2CCCCC2)s1 [Example 98, (E)-3-[5-[1,3-bis(cyclohexylmethyl)-2,3,6,7-tetrahydro-2,6-dioxo-1H-purin-8-yl]-2-thienyl]-2-propenoic Acid Nonaethylene Glycol Methyl Ether Ester]"
3,77 ± 29 nM,"COCCOCCOCCOCCOCCOCCOCCOCCOCCNC(=O)c1ccc(-c2nc3c(=O)n(CC4CCCCC4)c(=O)n(CC4CCCCC4)c3[nH]2)nc1 [Example 99, 6-(1,3-Bis(cyclohexylmethyl)-1,2,3,6-tetrahydro-2,6-dioxo-9H-purin-8-yl)nicotinic Acid Nonaethylene Glycol Methyl Ether Amide]"
4,25 ± 8 nM,"COCCOCCOCCOCCOCCOCCOCCOCCOCCN(CC1CC1)C(=O)/C=C/c1ccc(-c2nc3c(=O)n(CC4CCCCC4)c(=O)n(CC4CCCCC4)c3[nH]2)cc1 [Example 100, (E)-4-(1,3-Bis(cyclohexylmethyl)-1,2,3,6-tetrahydro-2,6-dioxo-9H-purin-8-yl)cinnamic Acid N-cyclopropylmethyl Nonaethylene Glycol Methyl Ether Amide]"
5,340 ± 94 nM,"O=C(/C=C/c1ccc(-c2nc3c(=O)n(CC4CCCCC4)c(=O)n(CC4CCCCC4)c3[nH]2)cc1)NCCOCCOCCOCCOCCOCCOCc1ccccc1 [Example 101, (E)-4-(1,3-Bis(cyclohexylmethyl)-1,2,3,6-tetrahydro-2,6-dioxo-9H-purin-8-yl)cinnamic Acid Hexaethylene Glycol Benzyl Ether Amide]"
6,230 ± 110 nM,"COCCOCCOCCOCCOCCOCCOCCOC(=O)/C=C/c1ccc(-c2nc3c(c(=O)[nH]c(=O)n3CC3CCCCC3)n2C)cc1 [Example 103, (E)-4-[(3-Cyclohexylmethyl)-2,3,6,7-tetrahydro-2,6-dioxo-7-methyl-1H-purin-8-yl]cinnamic Acid Heptaethylene Glycol Methyl Ether Ester]"
7,86 ± 54 nM,"COCCOCCOCCOCCOCCOCCOCCOCCOCCOC(=O)/C=C/c1ccc(-c2nc3c(c(=O)[nH]c(=O)n3CC3CCCCC3)n2C)cc1 [Example 104, (E)-4-[(3-Cyclohexylmethyl)-2,3,6,7-tetrahydro-2,6dioxo-7-methyl-1H-purin-8-yl]cinnamic Acid Nonaethylene Glycol Methyl Ether Ester]"
8,200 ± 80 nM,"COCCOCCOCCOCCOCCOCCOCCOCCOCCOC(=O)/C=C/c1ccc(-c2nc3c(c(=O)n(C)c(=O)n3CC3CCCCC3)n2C)cc1 [Example 105, (E)-4-[(3-Cyclohexylmethyl)-2,3,6,7-tetrahydro-2,6dioxo-1,7-dimethyl-1H-purin-8-yl]cinnamic Acid Nonaethylene Glycol Methyl Ether Ester]"
9,110 ± 56 nM,"COCCOCCOCCOCCOCCOCCOCCNCc1ccc(-c2nc3c(=O)n(CC4CCCCC4)c(=O)n(CC4CCCCC4)c3[nH]2)cc1 [Example 106, 4-[1,3-Bis(cyclohexylmethyl)-1,2.3,6-tetrahydro-2,6-dioxo-9H-purin-8-yl]benzylamine N-Heptaethylene Glycol Methyl Ether]"
10,300 ± 82 nM,"COCCOCCOCCOCCOCCOCCOCCOCCOCCNCc1ccc(-c2nc3c(=O)n(CC4CCCCC4)c(=O)n(CC4CCCCC4)c3[nH]2)cc1 [Example 108, 4-[1,3-Bis(cyclohexylmethyl)-1,2,3,6-tetrahydro-2,6-dioxo-9H-purin-8-yl]benzylamine N-Nonaethylene Glycol Methyl Ether]"
11,< 0.1 nM,"COCCOCCOCCOCCOCCOCCOCCOC(=O)/C=C/c1ccc(-c2nc3c(c(=O)n(CC4CCCCC4)c(=O)n3CC3CCCCC3)n2C)cc1 [Example 111, (E)-4-(1,3-Bis(cyclohexylmethyl)-2,3,6,7-tetrahydro-2,6-dioxo-7-methyl-1H-purin-8-yl)cinnamic Acid Heptaethylene Glycol Methyl Ether Ester]"

# Same assay, conditions: inhibition of cytokine-stimulated adhesion minus basal adhesion; calcein-AM labelled leukocytes on HUVEC monolayers; Hydrochloride
row,IC50,Compound
1,39 ± 19 nM,"COCCOCCOCCOCCOCCOCCOCCNCc1ccc(-c2nc3c(=O)n(CC4CCCCC4)c(=O)n(CC4CCCCC4)c3[nH]2)cc1 [Example 107, 4-[1,3-Bis(cyclohexylmethyl)-1,2,3,6-tetrahydro-2,6-dioxo-9H-purin-8-yl]benzylamine N-Heptaethylene Glycol Methyl Ether Hydrochloride]"

# Test system: not given
# Experiment: not given
# Details: not given
row,Compound,melting point
1,"O=C(O)/C=C/c1ccc(-c2nc3c(=O)n(CC4CCCCCC4)c(=O)n(CC4CCCCCC4)c3[nH]2)cc1 (hydrate or solvate) [Example 7, (E)-4-(1,3-bis(cycloheptylmethyl)-1,2,3,6-tetrahydro-2,6-dioxo-9H-purin-8-yl)cinnamic Acid]",> 250 °C
2,"O=C(O)/C=C/c1cccc(-c2nc3c(=O)n(Cc4ccccc4)c(=O)n(Cc4ccccc4)c3[nH]2)c1 (hydrate or solvate) [Example 13, (E)-3-(1,3-bis(benzyl)-1,2,3,6-tetrahydro-2,6-dioxo-9H-purin-8-yl)cinnamic Acid]",> 350 °C
3,"Cn1c(=O)c2nc(-c3ccc(/C=C/C(=O)O)cc3)[nH]c2n(C)c1=O (hydrate or solvate) [Example 14, (E)-4-(1,3-bis(methyl)-1,2,3,6-tetrahydro-2,6-dioxo-9H-purin-8-yl)cinnamic Acid]",> 350 °C
4,"O=C(O)/C=C/c1ccc(-c2nc3c(=O)n(Cc4ccc(F)cc4)c(=O)n(Cc4ccc(F)cc4)c3[nH]2)cc1 (hydrate or solvate) [Example 25, (E)-4-(1,3-bis(4-fluorobenzyl)-1,2,3,6-tetrahydro-2,6-dioxo-9H-purin-8-yl)cinnamic Acid]",> 300 °C
5,"CCCn1c(=O)c2nc(-c3cccc(/C=C/C(=O)O)c3)[nH]c2n(CCC)c1=O (hydrate or solvate) [Example 26, (E)-3-[1,3-bis(propyl)-1,2,3,6-tetrahydro-2,6-dioxo-9H-purin-8-yl]cinnamic Acid]",> 350 °C
6,"O=C(O)/C=C/c1ccc(-c2nc3c(=O)n(Cc4ccccc4)c(=O)n(Cc4ccccc4)c3[nH]2)cc1 [Example 2, (E)-4-(1,3-bis(benzyl)-1,2,3,6-tetrahydro-2,6-dioxo-9H-purin-8-yl)cinnamic Acid]",> 300 °C
7,"O=C(O)/C=C/c1ccc(-c2nc3c(=O)n(CC4CCCC4)c(=O)n(CC4CCCC4)c3[nH]2)cc1 [Example 3, (E)-4-(1,3-bis(cyclopentylmethyl)-1,2,3,6-tetrahydro-2,6-dioxo-9H-purin-8-yl)cinnamic Acid]",> 300 °C
8,"CCCn1c(=O)c2nc(-c3ccc(/C=C/C(=O)O)cc3)[nH]c2n(CCC)c1=O [Example 4, (E)-4-(1,3-bis(propyl)-1,2,3,6-tetrahydro-2,6-dioxo-9H-purin-8-yl)cinnamic Acid]",> 300 °C
9,"O=C(O)/C=C/c1ccc(-c2nc3c(=O)n(CC4CC4)c(=O)n(CC4CC4)c3[nH]2)cc1 [Example 5, (E)-4-(1,3-bis(cyclopropylmethyl)-1,2,3,6-tetrahydro-2,6-dioxo-9H-purin-8-yl)cinnamic Acid]",> 250 °C
10,"O=C(O)/C=C/c1ccc(-c2nc3c(=O)n(CCC4CCCCC4)c(=O)n(CCC4CCCCC4)c3[nH]2)cc1 [Example 8, (E)-4-(1,3-bis(2-cyclohexylethyl)-1,2,3,6-tetrahydro-2,6-dioxo-9H-purin-8-yl)cinnamic Acid]",> 250 °C
11,"O=C(O)/C=C/c1ccc(-c2nc3c(=O)n(-c4ccccc4)c(=O)n(-c4ccccc4)c3[nH]2)cc1 [Example 9, (E)-4-(1,3-bis(phenyl)-1,2,3,6-tetrahydro-2,6-dioxo-9H-purin-8-yl)cinnamic Acid]",> 375 °C
12,"CC(C)Cn1c(=O)c2nc(-c3ccc(/C=C/C(=O)O)cc3)[nH]c2n(CC(C)C)c1=O [Example 10, (E)-4-(1,3-bis(2-methylpropyl)-1,2,3,6-tetrahydro-2,6-dioxo-9H-purin-8-yl)cinnamic Acid]",> 300 °C

# Further lines, results first:
row,melting point,Compound
1,> 300 °C,"O=C(O)/C=C/c1ccc(-c2nc3c(=O)n(CC4CCC4)c(=O)n(CC4CCC4)c3[nH]2)cc1 (hydrate or solvate) [Example 27, (E)-4-(1,3-bis(cyclobutylmethyl)-1,2,3,6-tetrahydro-2,6-dioxo-9H-purin-8-yl)cinnamic Acid]"
2,> 300 °C,"O=C(O)/C=C/c1ccc(-c2nc3c(=O)n(Cc4cccnc4)c(=O)n(Cc4cccnc4)c3[nH]2)cc1 (hydrate or solvate) [Example 30, (E)-4-(1,3-Bis(3-pyridinylmethyl)-1,2,3,6-tetrahydro-2,6-dioxo-9H-purin-8-yl)cinnamic Acid]"
3,> 350 °C,"O=C(O)/C=C/c1cccc(-c2nc3c(=O)n(CC4CCCCC4)c(=O)n(CC4CCCCC4)c3[nH]2)c1 (hydrate or solvate) [Example 31, (E)-3-[1,3-Bis(cyclohexylmethyl)-1,2,3,6-tetrahydro-2,6-dioxo-9H-purin-8-yl]cinnamic Acid]"
